SMILES strings stand for the structures.

The target in the test is T1, endothelin-converting enzyme (ECE) (Homo sapiens, UniProt P42892).
T1 sequence (P42892 1-770): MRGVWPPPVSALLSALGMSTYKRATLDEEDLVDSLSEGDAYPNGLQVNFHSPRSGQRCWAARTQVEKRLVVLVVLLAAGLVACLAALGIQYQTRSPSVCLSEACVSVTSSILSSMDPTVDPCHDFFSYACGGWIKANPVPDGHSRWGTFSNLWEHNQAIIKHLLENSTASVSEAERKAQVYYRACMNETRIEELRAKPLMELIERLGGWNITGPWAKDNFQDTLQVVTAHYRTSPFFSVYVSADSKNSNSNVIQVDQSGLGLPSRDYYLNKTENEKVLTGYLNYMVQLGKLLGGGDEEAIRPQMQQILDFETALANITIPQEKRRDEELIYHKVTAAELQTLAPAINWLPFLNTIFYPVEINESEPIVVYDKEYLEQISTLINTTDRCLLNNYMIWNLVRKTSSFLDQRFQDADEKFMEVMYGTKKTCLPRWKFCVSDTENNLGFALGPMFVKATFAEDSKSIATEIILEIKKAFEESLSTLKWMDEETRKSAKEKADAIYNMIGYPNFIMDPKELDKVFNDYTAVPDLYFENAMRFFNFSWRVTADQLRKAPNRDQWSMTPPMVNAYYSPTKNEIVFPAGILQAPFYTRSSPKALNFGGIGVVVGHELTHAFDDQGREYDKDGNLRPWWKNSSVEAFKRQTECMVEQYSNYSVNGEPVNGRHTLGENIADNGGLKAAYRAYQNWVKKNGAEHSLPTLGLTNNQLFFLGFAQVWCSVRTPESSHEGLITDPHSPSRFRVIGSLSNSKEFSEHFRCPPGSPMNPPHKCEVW
Briefly: Determination of the inhibitory effect of the endothelin-converting enzyme (ECE): cleavage of (2,3-^3 H)propionyl-b-ET-1(19-35). The test is classed as biochemical. The conditions noted are these: purified ECE, pre-incubated 30 minutes at 37° C., Tris maleate buffer pH=6.5, incubation one hour at 37° C. From the text: Determination of the inhibitory effect of the endothelin-converting enzyme (ECE) A test is used, in which the product (2,3-^3 H)propionyl-b-ET-1(19-35) prepared as indicated below in a) is cleaved by ECE into the product (2,3-^3 H)propionyl-b-ET-1(19-21) in the presence of product P of which the inhibitory activity of ECE one wishes to determine as indicated below in b): the inhibitory activity of ECE of the product P will therefore be accordingly as high as the quantity of product of formula (II) formed, determined by counting the radioactivity, will be low. The operation is carried out as follows: b) Determination of the inhibitory activity of the endothelin-converting enzyme (ECE) […] The reaction is initiated by the addition of 10 μl of (2,3-^3 H)propionyl-b-ET-1(-19-35) prepared as indicated above in a), at a final concentration of 1.8.10^-12 M After incubation for one hour at 37° C., the reaction is stopped by the addition of 600 μl of ethyl acetate and the (2,3-^3 H)propionyl-b-ET-1(19-21) is extracted by mechanical agitation for 2 minutes. 300 μl of the organic phase is removed, 5 ml of liquid scintillator is added and the radioactivity is counted for 1 minute with a liquid scintillation counter. Each measurement is carried out in triplicate except for the ECE control (control enzyme, without the product the ECE inhibitory activity of which one wishes to test), for which the measurement is carried out six times. The percentage inhibition is calculated by establishing the relationship: [formula] The blank is carried out starting with the solution obtained without enzyme. The test was validated by its application to known inhibitors i.e. P1 which is phosphoramidon and P2 which is N-(phenylethylphosphonyl)-Leu-Trp (TAKEDA). From the cpm's obtained and by plotting the graph of the percentage of inhibition relative to the concentration of inhibitor (nM), the IC50 is calculated which therefore corresponds to the concentration which causes a 50% inhibition of ECE.
In the case of `O=C(N[C@@H](Cc1ccc(-c2cccs2)cc1)C(=O)O)C(CS)Cc1cccc(Br)c1` (single isomer, unassigned) [Example 7A], the IC50 stood at 0.12 µM. Compound `O=C(N[C@@H](Cc1c[nH]c2c(OCc3ccccc3)cccc12)C(=O)O)C(CS)Cc1cccc(Br)c1` (stereo partly drawn) [Example 8, N-[3-(3-bromophenyl)-2-(mercaptomethyl)-1-oxopropyl]-7-(phenylmethoxy)-Tryptophan] returned an IC50 of 0.15 µM. On to `O=C(N[C@@H](Cc1ccc(-c2ccccc2)cc1)c1nnn[nH]1)[C@@H](CS)Cc1ccccc1` [Example 9, (S,S)N-(2-((1,1'-biphenyl)-4-yl)-1-(1H-tetrazol-5-yl)ethyl)-alpha-(mercaptomethyl)-benzenepropanamide], for which the IC50 stood at 0.07 µM.

For orientation: IC50 means the concentration needed to halve the response being measured.

These data come from patent publication US6136842A, “Sulphur derivatives comprising an amide bond, method for preparing same, use thereof as drugs, and pharmaceutical compositions containing such derivatives” (Hoechst Marion Roussel, priority 1996, dated 2000).
